Like-named read-outs stand apart in the source and are kept apart here.
Assays:
Assay in all cases: 72-hour CellTiter-Glo 2.0 growth inhibition screen (single agent, 9x9 combination dose matrix)
Assay type in all cases: cell-based
[1] = system: HCC44; conditions: for EC50: HCC44, 72 h
Method: (§1) Growth inhibition was determined using a 72-hour CellTiter-Glo®2.0 proliferation assay. Combination format was a 9×9 dose matrix. Six of the 20 cell lines received the original two combinations whilst the remaining 14 cell lines received two additional combinations resulting in four combinations in total. Results have been supplied as both Chalice Analyzer files (.mcc) and raw luminescence data.
(§2) Cell lines that have been preserved in liquid nitrogen are thawed and expanded in growth media (see Appendix I). Once cells have reached expected doubling times, screening begins. Cells are seeded in 25 μl of growth media in black 384-well tissue culture treated plates at 500 cells per well (as noted in Analyzer). Cells are equilibrated in assay plates via centrifugation and placed at 37° C. 5% CO2 for twenty-four hours before treatment. […] Compounds are transferred to assay plates using and Echo acoustic liquid handling system. […] of each compound was added at the appropriate concentration for all combination dose points. Therefore, final assay volume would be 25.05 μl. Assay plates are incubated with compound for 3 days and are then analyzed using CellTiter-Glo 2.0. All data points are collected via automated processes and are subject to quality control and analyzed.
(§3) If T≥V_0:100*(1−(T−V_0)/(V−V_0)) • where T is the signal measure for a test article, V is the untreated/vehicle-treated control measure, and Vo is the untreated/vehicle control measure at time zero (also colloquially referred as TO plates). This formula is derived from the Growth Inhibition calculation used in the National Cancer Institute's NCI-60 high throughput screen. For the purposes of this disclosure, all data analysis was performed in Growth Inhibition (except where noted).
(§4) Inhibition is also provided as a measure of cell viability. […] Inhibition of 100% represents no doubling of cell numbers during the treatment window. Both cytostatic and cytotoxic treatments can yield an Inhibition percentage of 100%. Inhibition percentage is calculated as the following: […]
(§5) The fractional inhibition for each component agent and combination point in the matrix is calculated relative to the median of all untreated/vehicle-treated control wells. The Synergy Score equation integrates the experimentally-observed activity volume at each point in the matrix in excess of a model surface numerically derived from the activity of the component agents using the Loewe model for additivity. Additional terms in the Synergy Score equation (above) are used to normalize for various dilution factors used for individual agents and to allow for comparison of synergy scores across an entire experiment. The inclusion of positive inhibition gating or an Idata multiplier removes noise near the zero-effect level, and biases results for synergistic interactions at that occur at high activity levels. Combinations with higher maximum Growth Inhibition (GI) effects or those which are synergistic at low concentrations will have higher Synergy Scores.
(§6) The CI is a rough estimate of how much drug was needed in combination relative to the single agent doses required to achieve the chosen effect level. CI values in the range of 0.5-0.7 are typical for in vitro measurements of current clinical combinations. The CI error (σCI) is calculated using standard error propagation through the CI calculation based on the isobologram errors. In the Chalice Analyzer, the Best CI is reported from the many CI values calculated for each Icut crossing combination. Among all the measured CI values, the one with the largest single-to-noise level (1−CI)/σCI is reported as the Best CI. Best CI Level is the effect level from which the CI is calculated.

[2] = system: HCC1171
Method: as §1, §2, §3, §4, §5, §6

[3] = system: HPAF-II
Method: as §1, §2, §3, §4, §5, §6

[4] = system: NCI-H358; conditions: for EC50: NCI-H358, 72 h
Method: as §1, §2, §3, §4, §5, §6

[5] = system: TOV-21G
Method: as §1, §2, §3, §4, §5, §6

[6] = HCC44 (KRAS G12C), enhancer + MEI-522 (Voruciclib), 72 h
[7] = Homo sapiens, HCC44, Lung, Additional Single Agent Responses (inhibition, % I), 72 h
[8] = Homo sapiens, HCC44, Lung, growth inhibition (GI) curve, single agent, 72 h
[9] = enhancer combined with MEI-522 (Voruciclib), HCC44 (Lung), 72 hours, inhibition data
[10] = HCC1171 (KRAS G12C), enhancer + MEI-522 (Voruciclib), 72 h
[11] = HCC1171, Lung, Additional Single Agent Responses (inhibition, % I), 72 h
[12] = enhancer combined with MEI-522 (Voruciclib), HCC1171 (Lung), 72 hours, inhibition data
[13] = HPAF-II (KRAS G12D), enhancer + MEI-522 (Voruciclib), 72 h
[14] = enhancer combined with MEI-522 (Voruciclib), HPAF-II (Pancreas), 72 hours, inhibition data
[15] = NCl-H358 (KRAS G12C), enhancer + MEI-522 (Voruciclib), 72 h
[16] = enhancer combined with MEI-522 (Voruciclib), NCl-H358 (Lung), 72 hours, inhibition data
[17] = TOV-21G (KRAS G13C), enhancer + MEI-522 (Voruciclib), 72 h
[18] = enhancer combined with MEI-522 (Voruciclib), TOV-21G (Ovary), 72 hours, inhibition data

**Q.** Which results are given for `CC[C@@H]1C(=O)N(C)c2cnc(Nc3ccc(C(=O)N[C@H]4CC[C@H](N5CCN(CC6CC6)CC5)CC4)cc3OC)nc2N1C(C)C` [Volasertib]?
**A.** Best CI [1, 6]: 0.55; Bliss Volume [1, 6]: 6.88; HSA volume [1, 6]: 2.51; Loewe Volume [1, 6]: 0.65; Synergy Score [1, 6]: 6.97; Response Area ([1]; HCC44, Lung, Additional Single Agent Responses (inhibition, % I), 72 h): 4.07; Response Area ([1]; HCC44, Lung, growth inhibition (GI), AUC, single agent, 72 h): 5.39; EC50 [1, 7]: 4.2 nM; EC50 [1, 8]: 4.5 nM; IC50 [1, 7]: 6.3 nM; Emax ([1]; Homo sapiens, HCC44, Lung, Additional Single Agent Responses, 72 h, read-out: Max Response (% I)): 81%; GI50 [1, 8]: 4.4 nM; Emax ([1]; Homo sapiens, HCC44, Lung, growth inhibition (GI), single agent, 72 h, read-out: Max Response (% GI)): 113%; Best CI [1, 9]: 0.83; Bliss Volume [1, 9]: −1.88; HSA volume [1, 9]: 0.12; Loewe Volume [1, 9]: −0.92; Synergy Score [1, 9]: 1.13; Best CI Level ([1]; enhancer combined with MEI-522 (Voruciclib), HCC44 (Lung), 72 hours, inhibition data, unit assumed): 80%; Best CI [2, 10]: 0.95; Bliss Volume [2, 10]: −2.15; HSA volume [2, 10]: −1.49; Loewe Volume [2, 10]: −1.27; Synergy Score [2, 10]: 2.07; EC50 [2, 11]: 4.7 nM; Response Area [2, 11]: 1.99; Emax ([2]; HCC1171, Lung, Additional Single Agent Responses, 72 h, read-out: Max Response (% I)): 45%; GI50 ([2]; HCC1171, Lung, growth inhibition (GI) curve, single agent, 72 h): 5.3 nM; Response Area ([2]; HCC1171, Lung, growth inhibition (GI), AUC, single agent, 72 h): 3.40; Emax ([2]; HCC1171, Lung, growth inhibition (GI), single agent, 72 h, read-out: Max Response (% GI)): 79%; Best CI [2, 12]: 0.79; Bliss Volume [2, 12]: −3.18; HSA volume [2, 12]: −0.81; Loewe Volume [2, 12]: −0.71; Synergy Score [2, 12]: 0.73; Best CI Level ([2]; enhancer combined with MEI-522 (Voruciclib), HCC1171 (Lung), 72 hours, inhibition data, unit assumed): 50%; Best CI [3, 13]: 0.66; Bliss Volume [3, 13]: −0.85; HSA volume [3, 13]: 0.04; Loewe Volume [3, 13]: −0.80; Synergy Score [3, 13]: 2.64; Response Area ([3]; HPAF-II, Pancreas, Additional Single Agent Responses (inhibition, % I), 72 h): 3.45; Response Area ([3]; HPAF-II, Pancreas, growth inhibition (GI), AUC, single agent, 72 h): 4.65; EC50 ([3]; Homo sapiens, HPAF-II, 72 h, Pancreas, Additional Single Agent Responses (inhibition, % I)): 3.9 nM; EC50 ([3]; Homo sapiens, HPAF-II, 72 h, Pancreas, growth inhibition (GI) curve, single agent): 3.9 nM; IC50 ([3]; Homo sapiens, HPAF-II, Pancreas, Additional Single Agent Responses (inhibition, % I), 72 h): 6.2 nM; Emax ([3]; Homo sapiens, HPAF-II, Pancreas, Additional Single Agent Responses, 72 h, read-out: Max Response (% I)): 71%; GI50 ([3]; Homo sapiens, HPAF-II, Pancreas, growth inhibition (GI) curve, single agent, 72 h): 4.4 nM; Emax ([3]; Homo sapiens, HPAF-II, Pancreas, growth inhibition (GI), single agent, 72 h, read-out: Max Response (% GI)): 95%; Best CI [3, 14]: 0.52; Bliss Volume [3, 14]: −2.61; HSA volume [3, 14]: −0.36; Loewe Volume [3, 14]: −0.96; Synergy Score [3, 14]: 0.98; Best CI Level ([3]; enhancer combined with MEI-522 (Voruciclib), HPAF-II (Pancreas), 72 hours, inhibition data, unit assumed): 70%; EC50 ([4]; Homo sapiens, NCl-H358, Lung, Additional Single Agent Responses (inhibition, % I), 72 h): 6.1 nM; EC50 ([4]; Homo sapiens, NCl-H358, Lung, growth inhibition (GI) curve, single agent, 72 h): 6.1 nM; IC50 ([4]; Homo sapiens, NCI-H358, NCl-H358, Lung, Additional Single Agent Responses (inhibition, % I), 72 h): 7.8 nM; Emax ([4]; Homo sapiens, NCI-H358, NCl-H358, Lung, Additional Single Agent Responses, 72 h, read-out: Max Response (% I)): 75%; GI50 ([4]; Homo sapiens, NCI-H358, NCl-H358, Lung, growth inhibition (GI) curve, single agent, 72 h): 6.5 nM; Emax ([4]; Homo sapiens, NCI-H358, NCl-H358, Lung, growth inhibition (GI), single agent, 72 h, read-out: Max Response (% GI)): 100%; Bliss Volume [4, 15]: −1.58; HSA volume [4, 15]: −4.12; Loewe Volume [4, 15]: −3.93; Synergy Score [4, 15]: 3.21; Response Area ([4]; NCl-H358, Lung, Additional Single Agent Responses (inhibition, % I), 72 h): 3.44; Response Area ([4]; NCl-H358, Lung, growth inhibition (GI), AUC, single agent, 72 h): 4.57; Best CI [4, 16]: 0.80; Best CI Level [4, 16]: 20; Bliss Volume [4, 16]: −4.08; HSA volume [4, 16]: −3.08; Loewe Volume [4, 16]: −3.28; Synergy Score [4, 16]: 0.69; EC50 ([5]; Homo sapiens, TOV21G, 72 h, TOV-21G, Ovary, Additional Single Agent Responses (inhibition, % I)): 10 nM; EC50 ([5]; Homo sapiens, TOV21G, 72 h, TOV-21G, Ovary, growth inhibition (GI) curve, single agent): 13.8 nM; IC50 ([5]; Homo sapiens, TOV21G, TOV-21G, Ovary, Additional Single Agent Responses (inhibition, % I), 72 h): 11.6 nM; Emax ([5]; Homo sapiens, TOV21G, TOV-21G, Ovary, Additional Single Agent Responses, 72 h, read-out: Max Response (% I)): 89%; GI50 ([5]; Homo sapiens, TOV21G, TOV-21G, Ovary, growth inhibition (GI) curve, single agent, 72 h): 8.4 nM; Emax ([5]; Homo sapiens, TOV21G, TOV-21G, Ovary, growth inhibition (GI), single agent, 72 h, read-out: Max Response (% GI)): 163%; Best CI [5, 17]: 0.56; Bliss Volume [5, 17]: 2.45; HSA volume [5, 17]: −4.18; Loewe Volume [5, 17]: −6.03; Synergy Score [5, 17]: 1.71; Response Area ([5]; TOV-21G, Ovary, Additional Single Agent Responses (inhibition, % I), 72 h): 4.33; Response Area ([5]; TOV-21G, Ovary, growth inhibition (GI), AUC, single agent, 72 h): 7.56; Best CI [5, 18]: 0.76; Best CI Level [5, 18]: 20; Bliss Volume [5, 18]: −1.60; HSA volume [5, 18]: −1.29; Loewe Volume [5, 18]: −1.80; Synergy Score [5, 18]: 0.60

From US20240016781A1, “TREATMENT OF KRAS MUTANT CANCERS” (MEI Pharma, Inc., priority 2020, published 2024)
